Results as given in PubChem BioAssay (NCI).
“And” between values parts separate entries of the source, which are not always exact repeats. Equal entries are not always repeated.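 Cells were grown in 96-well plates and exposed to each compound for 48 hours at five concentrations; endpoints were interpolated linearly between bracketing concentrations, or set to the highest concentration if not reached. GI50 marks 50% less growth. TGI denotes the concentration required for complete inhibition of growth.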

What was measured:
Experiment in all cases: NCI-60 cell line screen, 48 h
DLD-1 colon = tested on: DLD-1 colon
OVCAR-3 ovarian = tested on: OVCAR-3 ovarian
SK-MEL-5 melanoma = tested on: SK-MEL-5 melanoma
SF-539 CNS = tested on: SF-539 CNS
NCI-H460 lung = tested on: NCI-H460 lung
DMS 273 small cell lung = tested on: DMS 273 small cell lung
NCI-H226 lung = tested on: NCI-H226 lung
ACHN renal = tested on: ACHN renal
NCI/ADR-RES ovarian = tested on: NCI/ADR-RES ovarian
BT-549 breast = tested on: BT-549 breast

Row | Structure (SMILES) | TGI (DLD-1 colon) [µM] | TGI (OVCAR-3 ovarian) | TGI (SK-MEL-5 melanoma) | TGI (SF-539 CNS) | TGI (NCI-H460 lung) [µM] | TGI (DMS 273 small cell lung) [µM] | TGI (NCI-H226 lung) | TGI (ACHN renal) | GI50 (NCI/ADR-RES ovarian) | TGI (NCI/ADR-RES ovarian) | GI50 (OVCAR-3 ovarian) | GI50 (SK-MEL-5 melanoma) | GI50 (SF-539 CNS) | GI50 (NCI-H460 lung) [µM] | GI50 (NCI-H226 lung) | GI50 (ACHN renal) | GI50 (BT-549 breast) [µM] | TGI (BT-549 breast) | GI50 (DLD-1 colon) [µM] | GI50 (DMS 273 small cell lung) [µM]
1 | COc1ccc(-c2cc(=O)c3c(O)c(O)c(OC)cc3o2)cc1O | > 100 | > 100 µM | > 100 µM | > 100 µM | > 100 | > 100 | > 100 µM | > 100 µM |  |  |  |  |  |  |  |  |  |  |  | 
2 | O=c1[nH]c2nc3ccccc3c(=O)n2nc1Cc1ccccc1 | > 100 | > 100 µM | > 100 µM | > 100 µM | > 100 | > 100 | > 100 µM | > 100 µM |  |  |  |  |  |  |  |  |  |  |  | 
3 | COc1ccccc1/C=C1\C(=O)N(C(=O)Cc2ccccc2)N=C1C | > 100 | > 100 µM | > 100 µM | > 100 µM | > 100 | > 100 | > 100 µM | > 100 µM |  |  |  |  |  |  |  |  |  |  |  | 
4 | COCN1COCN(C)C1=O | > 100 | > 100 µM | > 100 µM | > 100 µM | > 100 | > 100 | > 100 µM | > 100 µM |  |  |  |  |  |  |  |  |  |  |  | 
5 | S=C1SCC2CCCN12 (stereo unspecified) | > 100 |  | > 100 µM | > 100 µM | > 100 | > 100 |  | > 100 µM |  |  |  |  |  |  |  |  |  |  |  | 
6 | O=C(c1ccccc1)c1nc2c(Cl)ccc(Cl)c2cc1C(Br)Br | 2.24 | 3.15 µM | 2.7 µM | 1.76 µM |  | 3.14 | 3.61 µM | 1.52 µM |  |  |  |  |  |  |  |  |  |  |  | 
7 | CC(=O)OC1(Sc2ccccc2)CC2[C@H]3COC(C)(C)O[C@H]3CC[C@@]2(C)CC1=O (stereo partly specified) | > 100 | > 100 µM | 70 µM | 95.9 µM | > 100 | > 100 | > 100 µM | > 100 µM |  |  |  |  |  |  |  |  |  |  |  | 
8 | CC1=CC(=O)NP(=O)(Oc2ccc(Cl)cc2)N1 (stereo unspecified) | > 100 | > 100 µM | > 100 µM | > 100 µM | > 100 | > 100 | > 100 µM | > 100 µM |  |  |  |  |  |  |  |  |  |  |  | 
9 | N#CN1CC[C@@H]2CC3(CCC2C1)OCCO3 (stereo partly specified) | > 100 | > 100 µM | > 100 µM | > 100 µM | > 100 | > 100 | > 100 µM | > 100 µM |  |  |  |  |  |  |  |  |  |  |  | 
10 | CC(=O)/C=C1\CC(=O)N(C)c2ccccc2N1 | 22.9 | > 100 µM | 2.05 µM | > 100 µM | > 100 | > 100 | > 100 µM |  |  |  |  |  |  |  |  |  |  |  |  | 
11 | O=[N+]([O-])c1ccccc1/C=N\NC(=S)N/N=C/c1ccccc1[N+](=O)[O-] |  | 4.72 µM | > 100 µM | 58.6 µM | > 100 |  | > 100 µM | > 100 µM | 2.66 µM | > 100 µM | 1.95 µM | 4.21 µM | 4.17 µM | 3.64 | 75.4 µM | 7.53 µM | 39.6 | > 100 µM |  | 
12 | CCN1C(=O)N(CC)C2C1NN=c1s/c(=C3\C(=O)Nc4ccccc43)c(=O)n12 (stereo unspecified) |  | 3.02 µM | > 100 µM | 1.7 µM | > 100 |  | 55.5 µM | > 47.6 µM | 5.67 µM | > 100 µM | 0.331 µM | 0.426 µM | 0.309 µM | 0.397 | 0.544 µM | 0.606 µM | 1.06 | 32.3 µM |  | 
13 | O=C1c2ccccc2C(=O)N1c1ccc(Cc2ccc(N3C(=O)c4ccccc4C3=O)cc2)cc1 |  | > 100 µM | > 100 µM | > 100 µM | > 100 |  | > 100 µM | > 100 µM |  | > 100 µM |  |  |  |  |  |  |  | > 100 µM |  | 
14 | N.N.N.N.N#N.N#N.[Cl-].[Os+6] | > 100 | > 100 µM | > 100 µM | > 100 µM | > 100 | > 100 | > 100 µM |  |  |  | > 100 µM | > 100 µM | > 100 µM | > 100 | > 100 µM |  |  |  | > 100 | > 100
15 | COc1cc(C[C@H]2COC(=O)[C@]2(O)Cc2ccc(OCc3ccccc3)c(OC)c2)ccc1OCc1ccccc1 |  | > 100 µM | 37.1 µM | > 100 µM | > 100 |  | > 100 µM | > 100 µM | 5.18 µM | > 100 µM | > 100 µM | 13.7 µM | 37.6 µM | 9.77 | 33.7 µM | 26.1 µM | 28.1 | > 100 µM |  | 
16 | O=C(O)c1cccc([As]=[As]c2cccc(C(=O)O)c2)c1 (stereo unspecified) |  | > 100 µM | 96.1 µM | 39.1 µM | > 100 |  | > 100 µM | > 100 µM |  | > 100 µM |  |  |  |  |  |  |  | > 100 µM |  | 
17 | CCc1nc(N)nc(N)c1C#CC(C)c1ccc(-c2ccncc2)cc1Cl (stereo unspecified) |  | 2.06 µM and 13.3 µM | 0.781 µM and 1.98 µM | 1.56 µM and 10.4 µM |  |  | 6.56 µM and 28.3 µM | 4.57 µM and 13.7 µM | 0.0096 µM and 0.0366 µM | 5.11 µM and 9.3 µM | 0.0421 µM and 0.098 µM | 0.00753 µM and 0.0461 µM | 0.0159 µM and 0.0423 µM | < 0.005 | 0.264 µM and 0.86 µM | 0.00775 µM and 0.0304 µM |  | 2.8 µM and 12.1 µM |  | 
18 | O=C(n1c2ccccc2c2n[nH]c(=S)nc21)C(F)(F)F | > 100 | > 100 µM | > 100 µM | > 100 µM | > 100 | > 100 | > 100 µM |  |  |  |  |  |  |  |  |  |  |  |  | 
19 | COc1ccc(C2=C(c3ccc(OC)cc3)C(=O)OC2)cc1 |  | 0.712 µM | 5.9 µM | 6.67 µM | 17.7 |  | 31.4 µM | 23.4 µM | 2.89 µM | 28.4 µM | 0.216 µM | 0.472 µM | 0.745 µM | 0.893 | 3.2 µM | 2.72 µM | 11.7 | > 100 µM |  | 
20 | CC(C)(C)c1cc(C2c3cc4c(cc3OC(O)(CO)C2C(=O)O)OCO4)cc(C(C)(C)C)c1O (stereo unspecified) (tested in a mixture with another compound) | 33.2 | 18.9 µM | 23.9 µM | 25.8 µM | 33.3 | 41 |  | 28.2 µM |  |  |  |  |  |  |  |  |  |  |  | 
21 | Cc1nc2ccccc2c(=O)n1/N=C(\N=Nc1ccc(Cl)cc1)c1cccc(-c2ccco2)c1 | > 100 |  | 57.4 µM | 98.4 µM | > 100 | > 100 |  | > 100 µM |  |  |  |  |  |  |  |  |  |  |  | 
22 | O=C(CC1(O)C(=O)Nc2ccccc21)c1ccc(Cl)c(Cl)c1 (stereo unspecified) | > 100 |  | > 100 µM | > 100 µM | > 100 | > 100 | > 100 µM | > 100 µM |  |  |  |  |  |  |  |  |  |  |  | 
